Data taken from patent US5591741A, “Fungicidal spiroheterocyclic derivatives” (American Cyanamid Company, priority 1993, dated 1997).

Key:
Botrytis cinerea = experiment: Direct protectant activity against broad bean grey mould (BCB); assay type: in vivo; details: direct protectant foliar spray, 600 ppm, 4 days
Summary of the method: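 Broad bean plants (cv The Sutton, two leaf pairs) sprayed on upper leaf surfaces at 600 ppm, then inoculated 24 h later with 10^6 conidia/ml. Kept 4 days at 22 °C, high humidity; disease control rated from % leaf area with lesions against untreated or diluent controls.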

Alternaria solani = experiment: Activity against tomato early blight (AS); assay type: in vivo; details: Table VI; tomato seedlings, contact prophylactic foliar spray, 4 days
Summary of the method: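 Foliar contact prophylactic spray on tomato seedlings (cv Outdoor Girl, second true leaf expanded) in acetone/water 50:50 with 0.04% Tween 20; 24 h at 20° C, 40% R.H., then inoculation with 10^4 spores/ml A. solani conidia. Kept moist at 21° C; lesion cover rated 4 days post-inoculation against untreated or diluent-sprayed controls.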

Venturia inaequalis = experiment: Activity against apple scab in-vitro (VII); assay type: cell-based; details: 10 ppm, 10 days, 20° C., mycelial growth
Summary of the method: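 Compound in acetone was tested at 10 ppm final in half-strength Potato Dextrose Broth inoculated with V. inaequalis mycelial fragments and spores at 5×10^4 propagules/ml. After 10 days at 20° C, mycelial growth was rated against untreated or diluent controls.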

[1] = tested on: Pseudocercosporella herpotrichoides; experiment: Activity against wheat eyespot in-vitro (PHI); assay type: cell-based; details: 10 ppm, 10 days, 20° C., mycelial growth
Summary of the method: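 P. herpotrichoides mycelial fragments (5×10^4/ml) grown in half-strength PDB with compound at 10 ppm final, added from acetone. Incubated 10 days at 20 °C; mycelial growth rated against untreated or diluent controls.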

Leptosphaeria nodorum = experiment: Activity against wheat leafspot (LN); assay type: in vivo; details: direct therapeutic foliar spray, 600 ppm, 6-8 days
Summary of the method: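 Wheat cv Norman at single-leaf stage spray-inoculated with 1.5×10^6 conidia/ml, held 24 h at high humidity, then sprayed therapeutically with test compound at 600 ppm. Kept 6-8 days at 22° C, 70% humidity; lesion density per leaf rated against untreated or diluent-sprayed controls.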

Rhizoctonia solani = experiment: Activity against Rhizoctonia in-vitro (RSI); assay type: cell-based; details: 10 ppm, 10 days, 20° C., mycelial growth
Summary of the method: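 R. solani mycelial fragments (5×10^4/ml) in half-strength Potato Dextrose Broth with compound added from acetone to 10 ppm final. Mycelial growth assessed after 10 days at 20° C, rated against untreated or diluent control.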

Phytophthora infestans = assay type: in vivo; details: tomato, direct protectant foliar spray
Pyricularia oryzae = assay type: in vivo; details: rice seedlings, direct therapeutic foliar spray, 600 ppm, 4-5 days
[2] = tested on: Erysiphe graminis f.sp. hordei; experiment: Activity against barley powdery mildew, direct therapeutic (EGT); assay type: in vivo; details: direct therapeutic foliar spray, 600 ppm, up to 7 days
Summary of the method: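 Barley seedlings (cv. Golden Promise, single-leaf stage) were dusted with mildew conidia one day before a therapeutic foliar spray of 600 ppm compound. Plants were kept at 18 °C and 40% humidity for up to 7 days, and sporulating leaf area was rated against untreated or diluent-sprayed controls.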

Plasmopara viticola = experiment: Antisporulant activity against vine downy mildew (PVA); assay type: in vivo; details: vine leaves, antisporulant foliar spray, 600 ppm, 750 l/ha
Summary of the method: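 Cabernet Sauvignon vines (~8 cm) inoculated on lower leaf surfaces with 5×10^4 zoosporangia/ml, held 24 h at 21° C high humidity then 24 h glasshouse. Infected leaves sprayed underside with 600 ppm compound in 1:1 water/acetone, 0.04% Tween 20, 750 l/ha; 96 h glasshouse, 24 h humidity. Sporulating leaf area rated versus control.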

[3] = tested on: Erysiphe graminis f.sp. hordei; experiment: Direct protectant activity against barley powdery mildew (EGP); assay type: in vivo; details: direct protectant foliar spray, 8 days
Summary of the method: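 Barley seedlings (cv Golden Promise, single-leaf stage) were foliar-sprayed, held 24 h at 18 °C/40% RH, then dusted with mildew conidia. After 8 days at 18 °C/40% RH, sporulating leaf area was scored as a rating against untreated or diluent-sprayed controls.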

Row | SMILES | disease control rating BCB (Botrytis cinerea) | disease control rating AS (Alternaria solani) | disease control rating VII (Venturia inaequalis) | disease control rating PHI [1] | disease control rating LN (Leptosphaeria nodorum) | disease control rating RSI (Rhizoctonia solani) | disease control rating PIP (Phytophthora infestans) | disease control rating PO (Pyricularia oryzae) | disease control rating EGT [2] | disease control rating PVA (Plasmopara viticola) | disease control rating EGP [3]
1 | CCCCCCC(C)NC1COC2(CCC(C(C)(C)C)CC2)C1 (centres unmarked) [Compound 105] | 1 (about 50-80% disease control) | 0 (less than 50% disease control) | 2 (greater than 80% disease control) | 2 (greater than 80% disease control) | 1 (about 50-80% disease control) | 2 (greater than 80% disease control) | 0 (less than 50% disease control) | 0 (less than 50% disease control) | 2 (greater than 80% disease control) | 0 (less than 50% disease control) | 2 (greater than 80% disease control)
2 | CC(C)(C)CC(C)(C)NC1COC2(CCC(C(C)(C)C)CC2)C1 (centres unmarked) [Compound 106] | 0 (less than 50% disease control) | 0 (less than 50% disease control) | 1 (about 50-80% disease control) | 0 (less than 50% disease control) | 0 (less than 50% disease control) | 0 (less than 50% disease control) | 2 (greater than 80% disease control) | 0 (less than 50% disease control) | 2 (greater than 80% disease control) | 0 (less than 50% disease control) | 2 (greater than 80% disease control)
3 | CC(C)CCCC(C)NC1COC2(CCC(C(C)(C)C)CC2)C1 (centres unmarked) [Compound 107] | 0 (less than 50% disease control) | 0 (less than 50% disease control) | 1 (about 50-80% disease control) | 1 (about 50-80% disease control) | 0 (less than 50% disease control) | 1 (about 50-80% disease control) | 2 (greater than 80% disease control) | 0 (less than 50% disease control) | 2 (greater than 80% disease control) | 0 (less than 50% disease control) | 2 (greater than 80% disease control)
4 | CC(C)(C)C1CCC2(CC1)CC(NCCC1=CCCCC1)CO2 (centres unmarked) [Compound 108] | 2 (greater than 80% disease control) | 0 (less than 50% disease control) | 1 (about 50-80% disease control) | 1 (about 50-80% disease control) | 0 (less than 50% disease control) | 1 (about 50-80% disease control) | 2 (greater than 80% disease control) | 0 (less than 50% disease control) | 2 (greater than 80% disease control) | 0 (less than 50% disease control) | 2 (greater than 80% disease control)
5 | CC(C)(C)C1CCC(NC2COC3(CCC(C(C)(C)C)CC3)C2)CC1 (centres unmarked) [Compound 109] | 2 (greater than 80% disease control) | 1 (about 50-80% disease control) | 2 (greater than 80% disease control) | 1 (about 50-80% disease control) | 0 (less than 50% disease control) | 1 (about 50-80% disease control) | 2 (greater than 80% disease control) | 0 (less than 50% disease control) | 2 (greater than 80% disease control) | 0 (less than 50% disease control) | 2 (greater than 80% disease control)
6 | CC(C)CC(C)NC1COC2(CCC(C(C)(C)C)CC2)C1 (centres unmarked) [Compound 110] | 1 (about 50-80% disease control) | 0 (less than 50% disease control) | 1 (about 50-80% disease control) | 1 (about 50-80% disease control) | 0 (less than 50% disease control) | 1 (about 50-80% disease control) | 2 (greater than 80% disease control) | 0 (less than 50% disease control) | 2 (greater than 80% disease control) | 0 (less than 50% disease control) | 2 (greater than 80% disease control)
7 | CC(C)(C)CCNC1COC2(CCC(C(C)(C)C)CC2)C1 (centres unmarked) [Compound 111] | 1 (about 50-80% disease control) | 0 (less than 50% disease control) | 1 (about 50-80% disease control) | 0 (less than 50% disease control) | 0 (less than 50% disease control) | 1 (about 50-80% disease control) | 2 (greater than 80% disease control) | 0 (less than 50% disease control) | 2 (greater than 80% disease control) | 0 (less than 50% disease control) | 2 (greater than 80% disease control)
8 | CCC(C)CC(C)NC1COC2(CCC(C(C)(C)C)CC2)C1 (centres unmarked) [Compound 112] | 0 (less than 50% disease control) | 0 (less than 50% disease control) | 1 (about 50-80% disease control) | 1 (about 50-80% disease control) | 0 (less than 50% disease control) | 1 (about 50-80% disease control) | 2 (greater than 80% disease control) | 0 (less than 50% disease control) | 2 (greater than 80% disease control) | 0 (less than 50% disease control) | 2 (greater than 80% disease control)
9 | C1CCC2CN(C3COC4(C3)C3CC5CC(C3)CC4C5)CCC2C1 (centres unmarked) [Compound 113] | 1 (about 50-80% disease control) | 0 (less than 50% disease control) | 1 (about 50-80% disease control) | 0 (less than 50% disease control) | 0 (less than 50% disease control) | 0 (less than 50% disease control) | 1 (about 50-80% disease control) | 0 (less than 50% disease control) | 0 (less than 50% disease control) | 0 (less than 50% disease control) | 1 (about 50-80% disease control)
10 | CC(C)(C)C1CCC2(CC1)CC(N1CCc3ccccc3C1)CO2 (centres unmarked) [Compound 114] | 2 (greater than 80% disease control) | 1 (about 50-80% disease control) | 1 (about 50-80% disease control) | 0 (less than 50% disease control) | 0 (less than 50% disease control) | 0 (less than 50% disease control) | 2 (greater than 80% disease control) | 0 (less than 50% disease control) | 2 (greater than 80% disease control) | 0 (less than 50% disease control) | 2 (greater than 80% disease control)
